pEC50, pIC50: −log10 of the molar value. Where two headings read alike, the source gives them in different places.
What was measured:
Assay type in all cases: cell-based
[1] = test system: LS411N cells; assay: DHX9 cellular proliferation assay (CellTiter-Glo), LS411N (CRC-MSI); conditions: Homo sapiens, LS-411N, read-out: LS411N (CRC-MSI-H) Antiproliferative IC50
[2] = test system: NCI-H747 cells; assay: DHX9 cellular proliferation assay (CellTiter-Glo), NCI-H747 (CRC-MSS); conditions: Homo sapiens
[3] = test system: circBRIP1 in HCT116 cells; assay: DHX9 circBRIP1 cellular target engagement TaqMan Multiplex assay (qPCR); conditions: Homo sapiens, read-out: DHX9 Cellular Target Engagement EC50
[4] = test system: circBRIP1 in HCT116 cells; assay: DHX9 circBRIP1 cellular target engagement SYBR Green assay (qPCR); conditions: Homo sapiens, HCT-116, circBRIP1, HCT116 cells, read-out: DHX9 Cellular Target Engagement EC50
[5] = NCI-H747, NCI-H747, performed at Pharmaron, read-out: H747 (CRC-MSS) Antiproliferative IC50
[6] = HCT-116, circBRIP1, HCT116 cells, * Taqman assay was used
[7] = LS411N, CRC-MSI-H, performed at Pharmaron
[8] = NCI-H747, NCI-H747, CRC-MSS, performed at Pharmaron, read-out: H747 (CRC-MSS) Antiproliferative IC50
[9] = HCT-116, 72 h, circBRIP1, HCT116 cells, 72 hours, Taqman assay (marked *)

SMILES | pIC50 [2, 5] | pIC50 [2, 8] | pEC50 ([4]; SyBr assay (marked ^+)) | pIC50 ([1]; LS411N, performed at Pharmaron) | pIC50 [1, 7] | further results
CCS(=O)(=O)Nc1cc(Cl)cc(NC(=O)c2cc(-c3ncc(F)cc3OCc3nccs3)c(C)s2)c1 [Example 622] | < 5.00 |  |  | 7.31 |  | pEC50 [3, 6]: 7.25
CCS(=O)(=O)Nc1cc(Cl)cc(NC(=O)c2cc(-c3ncc(OC)cc3F)c(C)s2)c1 [Example 360] |  | 5.15 |  |  | 6.63 | pEC50 [3, 9]: 7.28
Cc1sc(C(=O)Nc2cc(Cl)cc(NS(C)(=O)=O)c2)cc1-c1ncc(N2CC(F)(F)C2)cn1 [Example 510] | < 5.00 |  |  | 6.91 |  | pEC50 [3, 6]: 7.79
CCS(=O)(=O)Nc1cc(Cl)cc(NC(=O)c2cc(-c3ncc(N4CC(F)(F)C4)cn3)c(C)s2)c1 [Example 463] | < 5.00 |  |  | 7.23 |  | pEC50 [3, 6]: 7.74
Cc1sc(C(=O)Nc2cc(Cl)cc(NS(C)(=O)=O)c2)cc1-c1ncc(N2CC(F)(F)C2)cc1OC(F)F [Example 536] | 5.17 |  |  | 7.15 |  | pEC50 [3, 6]: 7.31
Cc1sc(C(=O)Nc2cc(Cl)cc(NS(C)(=O)=O)c2)cc1-c1ccc(OC(C)(C)C)cn1 [Example 380] |  | 5.44 |  |  | 7.27 | pEC50 [3, 9]: 7.60
Cc1sc(C(=O)Nc2cc(Cl)cc(NS(C)(=O)=O)c2)cc1-c1ncc(OC2CN(C)C2)cn1 [Example 609, N-(3-chloro-5-methanesulfonamidophenyl)-5-methyl-4-{5-[(1-methylazetidin-3-yl)oxy]pyrimidin-2-yl}thiophene-2-carboxamide] | < 5.00 |  |  | 6.18 |  | pEC50 [3, 6]: 8.33
Cc1sc(C(=O)Nc2cc(Cl)cc(NS(C)(=O)=O)c2)cc1-c1ncccc1OC(C)c1cc(F)cc(F)c1 (single isomer, unassigned) [Example 633] | 5.19 |  |  | 7.98 |  | pEC50 [3, 6]: 7.34
CCS(=O)(=O)Nc1cc(Cl)cc(NC(=O)c2cc(-c3ccccn3)c(C)s2)c1 [Example 28] |  | < 5.00 | 7.59 |  | 7.10 | 
CN(C)C(=O)c1sc(C(=O)Nc2cc(Cl)cc(NS(C)(=O)=O)c2)cc1-c1ncccc1OCc1ccccc1 [Example 213] |  | < 5.00 | 7.13 |  | 6.76 | 
CS(=O)(=O)Nc1cc(Cl)cc(NC(=O)c2cc(-c3ncccc3OCc3ccccc3)c(CO)s2)c1 [Example 216] |  | < 5.00 | 7.90 |  | 7.41 | 
CS(=O)(=O)Nc1cc(Cl)cc(NC(=O)c2cc(-c3ncccc3OCc3ccccc3)cs2)c1 [Example 29] |  | 5.03 | 7.28 |  | 6.91 | 
CS(=O)(=O)Nc1cc(Br)cc(NC(=O)c2cc(-c3ncccn3)cs2)c1 [Example 25] |  | < 5.00 | 7.32 |  | 7.00 | 
CS(=O)(=O)Nc1cc(Br)cc(NC(=O)c2cc(-c3ccccn3)n(CC#N)c2)c1 [Example 95, N-(3-bromo-5-methanesulfonamidophenyl)-1-(cyanomethyl)-5-(pyridin-2-yl)-1H-pyrrole-3-carboxamide] |  |  | 6.75 |  |  | pIC50 [1]: 5.99; pIC50 ([2]; NCI-H747, read-out: H747 (CRC-MSS) Antiproliferative IC50): 5.10
Cc1ccc(-n2cc(C(=O)Nc3cc(Br)cc(NS(C)(=O)=O)c3)cn2)nc1 [Example 42] |  | < 5.00 | 6.51 |  | 6.04 | 
COc1cnc(-c2cc(C(=O)Nc3cc(Cl)cc(NS(C)(=O)=O)c3)sc2C)nc1 [Example 341] |  | < 5.00 | 7.46 |  | 6.91 | 
Cc1cc(C(=O)Nc2cc(Cl)cc(NS(C)(=O)=O)c2)cn1-c1ncccn1 [Example 59] |  | < 5.00 | 6.98 |  | 6.45 | 
CC(C)c1sc(C(=O)Nc2cc(Cl)cc(NS(C)(=O)=O)c2)cc1-c1ccccn1 [Example 233] |  | < 5.00 | 6.34 |  | 6.45 | 
CS(=O)(=O)Nc1cc(Cl)cc(NC(=O)c2cnn(-c3ccc(N4CC5(COC5)C4)cc3OCc3cccc(F)c3)c2)c1 [Example 722] | < 5.00 |  |  | 7.30 |  | pEC50 ([4]; ^+ SyBr assay was used): 7.29
CS(=O)(=O)Nc1cc(Cl)cc(NC(=O)c2cc(-c3ncc(F)cc3OCc3cncc(F)c3)cs2)c1 [Example 225] |  | < 5.00 | 7.70 |  | 7.36 | 
Cc1ccc(OCc2cccc(F)c2)c(-n2cc(C(=O)Nc3cc(Cl)cc(NS(C)(=O)=O)c3)cn2)n1 [Example 204] |  | < 5.00 | 7.27 |  | 7.26 | 
Cc1cccnc1-n1cc(C(=O)Nc2cc(Br)cc(NS(C)(=O)=O)c2)cn1 [Example 49] |  | < 5.00 | 6.36 |  | 6.05 | 
CS(=O)(=O)Nc1cc(Cl)cc(NC(=O)c2cc(-c3ccccc3OCc3ccccc3)cs2)c1 [Example 111] |  | < 5.00 | 6.79 |  | 6.50 | 
CCOc1cnc(-c2csc(C(=O)Nc3cc(Cl)cc(NS(C)(=O)=O)c3)c2)nc1 [Example 342] |  | < 5.00 | 7.32 |  | 6.88 | 
CS(=O)(=O)Nc1cc(Cl)cc(NC(=O)c2cc(CO)n(-c3ncccc3OCc3cncc(F)c3)c2)c1 [Example 723] | < 5.00 |  |  | 6.13 |  | pEC50 ([4]; ^+ SyBr assay was used): 7.13
CS(=O)(=O)Nc1cc(Cl)cc(NC(=O)c2cnn(-c3ccccn3)c2)c1 [Example 37] |  | < 5.00 | 6.08 |  | 5.46 | 
CS(=O)(=O)Nc1cc(Cl)cc(NC(=O)c2cc(-c3ncccc3Oc3ncccn3)cs2)c1 [Example 178, N-(3-chloro-5-(methylsulfonamido)phenyl)-4-(3-(pyrimidin-2-yloxy)pyridin-2-yl)thiophene-2-carboxamide] |  | < 5.00 | 7.00 |  | 7.09 | 

Continued, in another order:

pIC50 [2, 5] | pIC50 [2, 8] | pEC50 ([4]; SyBr assay (marked ^+)) | SMILES | pIC50 ([1]; LS411N, performed at Pharmaron) | pIC50 [1, 7] | further results
< 5.00 |  |  | Cn1cc(C(=O)Nc2cc(Cl)cc(NS(C)(=O)=O)c2)cc1-c1ncc(N2CCC3(CC2)CC3(F)F)cc1F [Example 518] | 6.69 |  | pEC50 [3, 6]: 7.24
< 5.00 |  |  | COC(=O)N1CCN(c2cnc(-c3cc(C(=O)Nc4cc(Cl)cc(NS(C)(=O)=O)c4)cn3C)c(F)c2)CC1 [Example 464] | 6.61 |  | pEC50 [3, 6]: 7.76
< 5.00 |  |  | Cn1cc(C(=O)Nc2cc(Cl)cc(NS(C)(=O)=O)c2)cc1-c1ncc(N2CC3(C2)CC(F)(F)C3)cn1 [Example 492] | 6.68 |  | pEC50 [3, 6]: 7.35
< 5.00 |  |  | Cc1cc(C(=O)Nc2cc(Cl)cc(NS(C)(=O)=O)c2)cn1-c1ccc(N2CC3COCC3C2)cn1 (stereo not drawn) [Example 405] | 6.94 |  | pEC50 [3, 6]: 7.58
< 5.00 |  |  | COCc1cnc(-c2cc(C(=O)Nc3cc(Cl)cc(NS(C)(=O)=O)c3)cn2C)nc1 [Example 690] | 6.74 |  | pEC50 ([4]; ^+ SyBr assay was used): 7.25
 | < 5.00 | 6.63 | CC(O)c1cc(C(=O)Nc2cc(Cl)cc(NS(C)(=O)=O)c2)cn1-c1ccccn1 (stereo not drawn) [Example 287] |  | 6.78 | 
 | < 5.00 | 6.55 | CC1CN(c2ccc(-n3cc(C(=O)Nc4cc(Cl)cc(NS(C)(=O)=O)c4)cn3)nc2)CCO1 (stereo not drawn) [Example 92] |  | 5.96 | 
5.04 |  |  | Cc1cc(C(=O)Nc2cc(Cl)cc(NS(C)(=O)=O)c2)cn1-c1ccc(N2CC(F)C2)cn1 [Example 395] | 6.93 |  | pEC50 ([4]; ^+ SyBr assay was used): 7.62
 | < 5.00 | 6.99 | Cc1cc(C(=O)Nc2cc(Cl)cc(NS(C)(=O)=O)c2)cn1-c1ccc(N2CCN(C(=O)N(C)C)CC2)cn1 [Example 284] |  | 6.79 | 
< 5.00 |  |  | COc1cc(F)cnc1-c1cc(C(=O)Nc2cc(Cl)cc(NS(C)(=O)=O)c2)cn1C [Example 568, N-(3-chloro-5-methanesulfonamidophenyl)-5-(5-fluoro-3-methoxypyridin-2-yl)-1-methylpyrrole-3-carboxamide] | 6.46 |  | pEC50 ([4]; ^+ SyBr assay was used): 7.24
< 5.00 |  |  | Cn1cc(C(=O)Nc2cc(Cl)cc(NS(C)(=O)=O)c2)cc1-c1ncc(N2CCC2)cn1 [Example 521] | 7.16 |  | pEC50 ([4]; ^+ SyBr assay was used): 7.45
 | < 5.00 | 6.78 | Cc1cc(C(=O)Nc2cc(Cl)cc(NS(C)(=O)=O)c2)cn1-c1ccc(F)cn1 [Example 390] |  | 7.20 | 
5.44 |  |  | Cn1cc(C(=O)Nc2cc(Cl)cc(NS(C)(=O)=O)c2)cc1-c1ccc(N2CCC2)cn1 [Example 538] | 6.91 |  | pEC50 ([4]; ^+ SyBr assay was used): 7.24
5.05 |  |  | Cc1cc(C(=O)Nc2cc(Cl)cc(NS(C)(=O)=O)c2)cn1-c1ccc(N2CC(F)(F)C2)cn1 [Example 399] | 7.02 |  | pEC50 ([4]; ^+ SyBr assay was used): 7.46
 | < 5.00 | 6.36 | CS(=O)(=O)Nc1cc(Cl)cc(NC(=O)c2cnn(-c3ccc(N4CC5CCC(C4)O5)cn3)c2)c1 [Example 191] |  | < 5.00 | 
5.15 |  |  | Cn1cc(C(=O)Nc2cc(Cl)cc(NS(C)(=O)=O)c2)cc1-c1ccc(N2CC(F)C2)cn1 [Example 539] | 7.01 |  | pEC50 ([4]; ^+ SyBr assay was used): 7.79
 | < 5.00 | 7.02 | Cn1cc(C(=O)Nc2cc(Cl)cc(NS(C)(=O)=O)c2)cc1-c1ncc(F)cn1 [Example 171, N-(3-chloro-5-(methylsulfonamido)phenyl)-5-(5-fluoropyrimidin-2-yl)-1-methyl-1H-pyrrole-3-carboxamide] |  | 6.43 | 
